In patent publication US20230295200A1 (REGENTS OF THE UNIVERSITY OF MICHIGAN, priority 2022, published 2023):

Experiments:
[1] = molecular target: T1, STAT6 protein (Homo sapiens, UniProt P42226); test: Fluorescence polarization (FP) binding assay, STAT6; conditions: FP competition, 5 nM fluorescein-labeled tracer, 200 nM protein, PBS pH7.4; read-out: Binding STAT6
T1 sequence (P42226 1-847): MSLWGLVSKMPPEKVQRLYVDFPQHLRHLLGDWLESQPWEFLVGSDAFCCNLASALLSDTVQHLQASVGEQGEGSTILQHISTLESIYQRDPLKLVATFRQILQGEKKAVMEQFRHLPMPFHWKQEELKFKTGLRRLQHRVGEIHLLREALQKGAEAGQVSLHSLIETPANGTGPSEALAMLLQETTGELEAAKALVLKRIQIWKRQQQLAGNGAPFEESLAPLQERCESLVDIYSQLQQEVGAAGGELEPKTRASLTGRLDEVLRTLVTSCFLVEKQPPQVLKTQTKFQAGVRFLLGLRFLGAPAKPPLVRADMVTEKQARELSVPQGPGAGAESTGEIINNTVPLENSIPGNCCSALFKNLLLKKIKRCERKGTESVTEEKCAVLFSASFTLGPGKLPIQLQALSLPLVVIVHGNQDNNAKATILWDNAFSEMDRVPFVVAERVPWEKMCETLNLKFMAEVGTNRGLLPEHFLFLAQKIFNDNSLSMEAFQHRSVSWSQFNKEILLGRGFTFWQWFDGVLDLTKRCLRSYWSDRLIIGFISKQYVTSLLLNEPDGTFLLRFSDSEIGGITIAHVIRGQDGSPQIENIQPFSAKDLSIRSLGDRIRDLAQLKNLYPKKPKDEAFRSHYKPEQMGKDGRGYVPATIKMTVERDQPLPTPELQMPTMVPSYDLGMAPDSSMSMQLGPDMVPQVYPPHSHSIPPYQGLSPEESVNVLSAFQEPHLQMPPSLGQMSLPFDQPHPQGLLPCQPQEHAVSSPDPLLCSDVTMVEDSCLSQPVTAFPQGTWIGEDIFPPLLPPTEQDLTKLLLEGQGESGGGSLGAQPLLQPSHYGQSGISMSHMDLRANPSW
Summary of the method: (§1)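 Fluorescein-labelled tracer (5 nM) with 200 nM STAT5 and/or STAT6 protein in PBS pH 7.4, 0.01% BGG, 0.01% Tween-20, 2 mM DTT. Mixed 15 min, then equilibrated 1 h at room temperature; read by fluorescence polarization, constants from nonlinear curve fitting.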

[2] = molecular target: T2, STAT5A (Homo sapiens, UniProt P42229); test: Fluorescence polarization (FP) binding assay, STAT5A; conditions: FP competition, 5 nM fluorescein-labeled tracer, 200 nM protein, PBS pH7.4
T2 sequence (P42229 1-794): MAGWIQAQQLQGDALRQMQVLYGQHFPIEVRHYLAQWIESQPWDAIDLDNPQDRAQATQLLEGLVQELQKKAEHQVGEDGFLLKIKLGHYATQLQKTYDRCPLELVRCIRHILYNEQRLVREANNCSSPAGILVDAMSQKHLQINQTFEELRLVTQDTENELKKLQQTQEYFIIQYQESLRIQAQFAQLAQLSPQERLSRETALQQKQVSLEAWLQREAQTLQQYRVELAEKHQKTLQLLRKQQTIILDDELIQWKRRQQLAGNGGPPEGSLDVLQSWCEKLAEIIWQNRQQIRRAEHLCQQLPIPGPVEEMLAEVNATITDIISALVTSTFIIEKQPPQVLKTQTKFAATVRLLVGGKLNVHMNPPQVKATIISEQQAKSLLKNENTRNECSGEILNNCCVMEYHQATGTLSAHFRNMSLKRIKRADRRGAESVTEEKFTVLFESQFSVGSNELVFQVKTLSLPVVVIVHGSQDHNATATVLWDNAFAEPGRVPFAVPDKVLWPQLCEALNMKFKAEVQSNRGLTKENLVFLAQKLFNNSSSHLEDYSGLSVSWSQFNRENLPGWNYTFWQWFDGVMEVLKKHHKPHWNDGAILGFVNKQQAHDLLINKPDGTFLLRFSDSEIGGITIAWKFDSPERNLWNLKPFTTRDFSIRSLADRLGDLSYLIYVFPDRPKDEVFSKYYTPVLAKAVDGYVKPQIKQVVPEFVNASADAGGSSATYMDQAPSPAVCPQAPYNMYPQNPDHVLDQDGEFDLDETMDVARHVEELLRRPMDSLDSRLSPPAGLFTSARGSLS
Summary of the method: as §1

SMILES	Ki [1] [µM]	Ki [2] [µM]
CC(C)(C)[C@H](NC(=O)/C=C/c1ccc(C(F)(F)P(=O)(O)O)cc1)C(=O)N1CCC[C@H]1c1nc(Cc2ccccc2)cs1 [Compound 18, ((4-((E)-3-(((S)-1-((S)-2-(4-benzylthiazol-2-yl)pyrrolidin-1-yl)-3,3-dimethyl-1-oxobutan-2-yl)amino)-3-oxoprop-1-en-1-yl)phenyl)difluoromethyl)phosphonic acid]	> 10	> 10
CC(=O)N1CC[C@H]2CC[C@@H](C(=O)N3CCOC(C)(c4ccc(F)cc4)C3)N2C(=O)[C@@H](NC(=O)c2cc3cc(C(F)(F)P(=O)(O)O)ccc3s2)C1 (stereo partly drawn) [Compound 159, ((2-(((5S,8S,10aR)-3-acetyl-8-(2-(4-fluorophenyl)-2-methylmorpholine-4-carbonyl)-6-oxodecahydropyrrolo[1,2-a][1,5]diazocin-5-yl)carbamoyl)benzo[b]thiophen-5-yl)difluoromethyl)phosphonic acid]	1 to 10	> 10
CC(C)(C)[C@H](NC(=O)c1cc2cc(C(F)(F)P(=O)(O)O)ccc2[nH]1)C(=O)N1CCC[C@H]1c1ncc(-c2ccccc2)[nH]1 [Compound 33, ((2-(((S)-3,3-dimethyl-1-oxo-1-((S)-2-(5-phenyl-1H-imidazol-2-yl)pyrrolidin-1-yl)butan-2-yl)carbamoyl)-1H-indol-5-yl)difluoromethyl)phosphonic acid]	> 10	> 10
CC(C)(C)[C@H](NC(=O)c1cc2cc(C(F)(F)P(=O)(O)O)ccc2[nH]1)C(=O)N1CCC[C@H]1C(=O)Nc1nc(-c2ccccc2)cs1 [Compound 30, ((2-(((S)-3,3-dimethyl-1-oxo-1-((S)-2-((4-phenylthiazol-2-yl)carbamoyl)pyrrolidin-1-yl)butan-2-yl)carbamoyl)-1H-indol-5-yl)difluoromethyl)phosphonic acid]	> 10	> 10
CC(C)(C)[C@H](NC(=O)c1cc2cc(C(F)(F)P(=O)(O)O)ccc2[nH]1)C(=O)N1CCC[C@H]1C(=O)Nc1ccc2ccccc2c1 [Compound 15, ((2-(((S)-3,3-dimethyl-1-((S)-2-(naphthalen-2-ylcarbamoyl)pyrrolidin-1-yl)-1-oxobutan-2-yl)carbamoyl)-1H-indol-5-yl)difluoromethyl)phosphonic acid]	1 to 10	1 to 10
CC(C)(C)[C@H](NC(=O)/C=C/c1ccc(C(F)(F)P(=O)(O)O)cc1)C(=O)N1CCC[C@H]1c1ncc(-c2ccccc2)s1 [Compound 22, ((4-((E)-3-(((S)-3,3-dimethyl-1-oxo-1-((S)-2-(5-phenylthiazol-2-yl)pyrrolidin-1-yl)butan-2-yl)amino)-3-oxoprop-1-en-1-yl)phenyl)difluoromethyl)phosphonic acid]	> 10	> 10
CC(=O)N1CC[C@H]2CC[C@@H](C(=O)N3CCC[C@@H](c4ccccc4)C3)N2C(=O)[C@@H](NC(=O)c2cc3cc(C(F)(F)P(=O)(O)O)ccc3s2)C1 [Compound 157, ((2-(((5S,8S,10aR)-3-acetyl-6-oxo-8-((S)-3-phenylpiperidine-1-carbonyl)decahydropyrrolo[1,2-a][1,5]diazocin-5-yl)carbamoyl)benzo[b]thiophen-5-yl)difluoromethyl)phosphonic acid]	1 to 10	> 10

More lines, now with the values ahead:

Ki [1] [µM]	Ki [2] [µM]	SMILES
0.1 to 1	1 to 10	CN(C)C(=O)CCN(C(=O)[C@@H]1CCCN1C(=O)[C@@H](NC(=O)c1cc2cc(C(F)(F)P(=O)(O)O)ccc2s1)C(C)(C)C)c1ccc2ccccc2c1 [Compound 317, ((2-(((S)-1-((S)-2-((3-(dimethylamino)-3-oxopropyl)(naphthalen-2-yl)carbamoyl)pyrrolidin-1-yl)-3,3-dimethyl-1-oxobutan-2-yl)carbamoyl)benzo[b]thiophen-5-yl)difluoromethyl)phosphonic acid]
0.1 to 1	> 10	CC(C)(C)[C@H](NC(=O)c1cc2cc(C(F)(F)P(=O)(O)O)ccc2s1)C(=O)N1CCC[C@H]1C(=O)N1CCOC(c2ccccc2Cl)C1 (stereo partly drawn) [Compound 112, ((2-(((2S)-1-((2S)-2-(2-(2-chlorophenyl)morpholine-4-carbonyl)pyrrolidin-1-yl)-3,3-dimethyl-1-oxobutan-2-yl)carbamoyl)benzo[b]thiophen-5-yl)difluoromethyl)phosphonic acid]
1 to 10	> 10	Cc1ccc(C2CN(C(=O)[C@@H]3CCCN3C(=O)[C@@H](NC(=O)c3cc4cc(C(F)(F)P(=O)(O)O)ccc4s3)C(C)(C)C)CCO2)c(C)c1 (stereo partly drawn) [Compound 107, ((2-(((2S)-1-((2S)-2-(2-(2,4-dimethylphenyl)morpholine-4-carbonyl)pyrrolidin-1-yl)-3,3-dimethyl-1-oxobutan-2-yl)carbamoyl)benzo[b]thiophen-5-yl)difluoromethyl)phosphonic acid]
> 10	> 10	CCCCC(=O)N1C[C@H]2CCN(C(=O)[C@@H]3CCCN3C(=O)[C@@H](NC(=O)c3cc4cc(C(F)(F)P(=O)(O)O)ccc4s3)C(C)(C)C)[C@H]2C1 [Compound 85, ((2-(((S)-3,3-dimethyl-1-oxo-1-((S)-2-((3aR,6aR)-5-pentanoyloctahydropyrrolo[3,4-b]pyrrole-1-carbonyl)pyrrolidin-1-yl)butan-2-yl)carbamoyl)benzo[b]thiophen-5-yl)difluoromethyl)phosphonic acid]
1 to 10	> 10	CC(C)(C)[C@H](NC(=O)c1cc2cc(C(F)(F)P(=O)(O)O)ccc2s1)C(=O)N1CCC[C@H]1C(=O)N1CCN(S(C)(=O)=O)[C@@H](c2ccccc2)C1 [Compound 169, ((2-(((S)-3,3-dimethyl-1-((S)-2-((S)-4-(methylsulfonyl)-3-phenylpiperazine-1-carbonyl)pyrrolidin-1-yl)-1-oxobutan-2-yl)carbamoyl)benzo[b]thiophen-5-yl)difluoromethyl)phosphonic acid]
> 10	> 10	O=C(NC1(C(=O)N2CCC[C@H]2C(=O)N2CCO[C@@H](c3ccccc3)C2)CCC1)c1cc2cc(C(F)(F)P(=O)(O)O)ccc2s1 [Compound 155, (difluoro(2-((1-((S)-2-((S)-2-phenylmorpholine-4-carbonyl)pyrrolidine-1-carbonyl)cyclobutyl)carbamoyl)benzo [b]thiophen-5-yl)methyl)phosphonic acid]
0.1 to 1	> 10	CC(C)(C)[C@H](NC(=O)c1ccc2cc(C(F)(F)P(=O)(O)O)ccc2c1)C(=O)N1CCC[C@H]1C(=O)N1CCO[C@H](c2ccccc2)C1 [Compound 145, ((6-(((S)-3,3-dimethyl-1-oxo-1-((S)-2-((R)-2-phenylmorpholine-4-carbonyl)pyrrolidin-1-yl)butan-2-yl)carbamoyl)naphthalen-2-yl)difluoromethyl)phosphonic acid]
0.1 to 1	1 to 10	CC(C)(C)[C@H](NC(=O)c1cc2cc(C(F)(F)P(=O)(O)O)ccc2s1)C(=O)N1CCC[C@H]1C(=O)N1CCOC(c2ccc(Cl)c(Cl)c2)C1 (stereo partly drawn) [Compound 114, ((2-(((2S)-1-((2S)-2-(2-(3,4-dichlorophenyl)morpholine-4-carbonyl)pyrrolidin-1-yl)-3,3-dimethyl-1-oxobutan-2-yl)carbamoyl)benzo[b]thiophen-5-yl)difluoromethyl)phosphonic acid]
